Reference: patent US7981903B2, “2-[2-{phenylamino}-1H-pyrrolo[2,3-D]pyrimidin-4-yl)amino] benzamide derivatives as IGF-1R inhibitors for the treatment of cancer” (GlaxoSmithKline LLC, priority 2007, dated 2011)
pIC50: −log10 of the molar value.

Tests used:
ALK = ALK (Homo sapiens, UniProt Q9UM73); assay: ALK enzyme assay (HTRF); format: biochemical; details: 0.25 nM ALK, 15.0 μM ATP, values given as pIC50 category
How it was run: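 Final compound range 0.00017 to 10 μM (twelve 1:3 dilutions). Kinase reaction with ATP and biotinylated synthetic peptide runs 120 min at 20° C, stopped with EDTA; phosphotyrosine detected by HTRF after 60 min. Inhibition referenced to DMSO (1%) and EDTA (0.1 M) controls, curve-fitted.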

Colo205 = assay: Inhibition of cell proliferation (CellTiter-Glo or InCell analyzer), Colo205; format: cell-based; details: Homo sapiens, COLO 205, 72 h / 3 days, values given as IC50 category
How it was run: In one

[1] = biological target: T1, NIH-3T3 cells overexpressing human IR (Homo sapiens, UniProt P06213); assay: IR cellular autophosphorylation (DELFIA); format: cell-based; details: 2 h compound, insulin 3 ug/ml for 15 minutes, IC50 category
T1 construct: expressed in transfected cells; host or cells: NIH-3T3 (mouse fibroblasts)
How it was run: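 Receptor autophosphorylation measured by DELFIA, capturing IGF-1R or IRβ and detecting with europium anti-pTyr, reported as percent of IGF-1- or insulin-stimulated signal. Compounds (30 uM to 1.5 nM) added 2 h before ligand, then 15 min stimulation (IGF-1 30 ng/ml or insulin 3 ug/ml).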

ALK, sequence (Q9UM73 19-1620): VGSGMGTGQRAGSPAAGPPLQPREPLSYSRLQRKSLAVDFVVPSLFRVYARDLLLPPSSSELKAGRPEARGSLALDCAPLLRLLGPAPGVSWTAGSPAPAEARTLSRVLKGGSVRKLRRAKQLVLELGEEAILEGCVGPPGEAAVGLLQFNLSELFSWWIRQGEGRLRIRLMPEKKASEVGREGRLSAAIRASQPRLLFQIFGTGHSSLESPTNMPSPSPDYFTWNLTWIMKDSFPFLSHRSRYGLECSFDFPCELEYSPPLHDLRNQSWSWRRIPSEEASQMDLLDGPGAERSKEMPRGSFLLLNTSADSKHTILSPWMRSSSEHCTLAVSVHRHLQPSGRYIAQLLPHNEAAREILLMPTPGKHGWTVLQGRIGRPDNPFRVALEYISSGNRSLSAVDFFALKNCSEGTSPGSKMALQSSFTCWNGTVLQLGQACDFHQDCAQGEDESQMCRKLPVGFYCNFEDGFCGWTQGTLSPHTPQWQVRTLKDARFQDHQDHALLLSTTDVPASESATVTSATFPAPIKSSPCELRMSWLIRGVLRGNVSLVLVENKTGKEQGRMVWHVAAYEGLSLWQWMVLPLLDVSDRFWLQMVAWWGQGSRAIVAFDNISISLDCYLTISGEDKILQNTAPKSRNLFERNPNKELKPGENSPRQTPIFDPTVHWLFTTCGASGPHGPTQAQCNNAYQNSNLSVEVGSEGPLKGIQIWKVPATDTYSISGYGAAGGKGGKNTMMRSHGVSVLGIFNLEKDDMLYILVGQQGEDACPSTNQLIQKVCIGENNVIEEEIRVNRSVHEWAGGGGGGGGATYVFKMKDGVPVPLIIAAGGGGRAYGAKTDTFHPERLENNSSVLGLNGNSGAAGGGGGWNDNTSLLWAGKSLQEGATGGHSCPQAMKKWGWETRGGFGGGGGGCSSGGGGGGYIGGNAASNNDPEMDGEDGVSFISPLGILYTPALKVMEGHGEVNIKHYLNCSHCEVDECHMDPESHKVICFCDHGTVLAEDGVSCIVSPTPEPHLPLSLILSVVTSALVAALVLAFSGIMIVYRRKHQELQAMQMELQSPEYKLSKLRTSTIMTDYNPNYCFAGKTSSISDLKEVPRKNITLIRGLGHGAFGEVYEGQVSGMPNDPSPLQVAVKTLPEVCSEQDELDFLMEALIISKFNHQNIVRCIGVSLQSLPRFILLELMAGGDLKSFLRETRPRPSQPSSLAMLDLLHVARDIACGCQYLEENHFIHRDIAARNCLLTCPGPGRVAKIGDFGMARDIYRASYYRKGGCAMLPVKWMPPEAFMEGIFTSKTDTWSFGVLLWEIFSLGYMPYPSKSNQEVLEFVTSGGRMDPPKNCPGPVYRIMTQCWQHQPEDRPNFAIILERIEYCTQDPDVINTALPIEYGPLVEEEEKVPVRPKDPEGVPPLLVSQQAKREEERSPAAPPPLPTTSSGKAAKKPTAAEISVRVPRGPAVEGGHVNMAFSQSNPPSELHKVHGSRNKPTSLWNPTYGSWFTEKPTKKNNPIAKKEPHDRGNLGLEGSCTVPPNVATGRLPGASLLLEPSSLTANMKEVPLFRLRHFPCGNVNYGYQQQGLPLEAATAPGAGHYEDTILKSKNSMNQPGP
T1 sequence (P06213 28-1382): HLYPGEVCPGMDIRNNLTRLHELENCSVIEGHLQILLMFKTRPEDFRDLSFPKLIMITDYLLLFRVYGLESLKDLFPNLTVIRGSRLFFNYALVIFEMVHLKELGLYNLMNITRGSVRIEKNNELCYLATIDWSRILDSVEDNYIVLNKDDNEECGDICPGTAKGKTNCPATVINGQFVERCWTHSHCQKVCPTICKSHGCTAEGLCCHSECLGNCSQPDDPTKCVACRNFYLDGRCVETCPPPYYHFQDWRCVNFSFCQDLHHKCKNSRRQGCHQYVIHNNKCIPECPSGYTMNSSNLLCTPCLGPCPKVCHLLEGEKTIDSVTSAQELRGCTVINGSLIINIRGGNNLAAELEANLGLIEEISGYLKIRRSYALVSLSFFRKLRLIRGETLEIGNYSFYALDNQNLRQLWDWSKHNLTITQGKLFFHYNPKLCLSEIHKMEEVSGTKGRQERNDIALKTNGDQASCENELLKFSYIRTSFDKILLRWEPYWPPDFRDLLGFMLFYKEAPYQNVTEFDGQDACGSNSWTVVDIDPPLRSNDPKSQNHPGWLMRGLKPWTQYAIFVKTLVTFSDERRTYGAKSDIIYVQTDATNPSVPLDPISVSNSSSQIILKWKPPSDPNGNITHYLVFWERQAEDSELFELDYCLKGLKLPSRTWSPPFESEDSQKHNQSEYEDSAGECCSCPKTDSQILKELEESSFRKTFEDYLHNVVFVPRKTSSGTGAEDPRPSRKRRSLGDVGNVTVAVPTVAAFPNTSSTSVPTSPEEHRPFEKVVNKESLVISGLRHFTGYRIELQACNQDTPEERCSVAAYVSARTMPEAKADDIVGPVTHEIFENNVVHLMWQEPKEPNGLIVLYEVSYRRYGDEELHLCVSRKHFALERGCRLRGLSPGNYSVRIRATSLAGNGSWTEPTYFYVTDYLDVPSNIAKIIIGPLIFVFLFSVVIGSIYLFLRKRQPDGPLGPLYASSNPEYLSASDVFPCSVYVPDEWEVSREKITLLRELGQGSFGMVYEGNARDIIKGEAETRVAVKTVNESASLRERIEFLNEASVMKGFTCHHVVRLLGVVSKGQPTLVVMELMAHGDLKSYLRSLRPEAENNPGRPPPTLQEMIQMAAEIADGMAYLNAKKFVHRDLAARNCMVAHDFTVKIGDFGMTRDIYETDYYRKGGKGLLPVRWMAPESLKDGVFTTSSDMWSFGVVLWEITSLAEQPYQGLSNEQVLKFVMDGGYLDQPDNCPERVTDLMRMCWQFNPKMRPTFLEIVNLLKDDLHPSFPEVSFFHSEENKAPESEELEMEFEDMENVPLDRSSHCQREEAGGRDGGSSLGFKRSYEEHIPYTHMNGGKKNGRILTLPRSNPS

Row | SMILES | pIC50 (ALK) | pIC50 (Colo205) | pIC50 [1]
1 | CCCN1CCC=C(c2ccc(Nc3nc(Nc4ccc(F)cc4C(N)=O)c4cc[nH]c4n3)c(OC)c2)C1 [Example 54, 5-fluoro-2-[(2-{[2-(methyloxy)-4-(1-propyl-1,2,5,6-tetrahydro-3-pyridinyl)phenyl]amino}-1H-pyrrolo[2,3-d]pyrimidin-4-yl)amino]benzamide] | 9.00 to 9.60 | > 6.60 | 6.30 to 7.00
2 | COc1cc(N2CCOC[C@@H]2C)ccc1Nc1nc(Nc2cc(F)ccc2C(N)=O)c2cc[nH]c2n1 [Example 84, 4-fluoro-2-[(2-{[4-[(3S)-3-methyl-4-morpholinyl]-2-(methyloxy)phenyl]amino}-1H-pyrrolo[2,3-d]pyrimidin-4-yl)amino]benzamide] | 8.40 to 8.90 | > 6.60 | > 7.00
3 | COc1ccc(OC[C@@H](O)CN(C)C)cc1Nc1nc(Nc2cc(F)ccc2C(N)=O)c2cc[nH]c2n1 [Example 86, 2-[(2-{[5-{[(2S)-3-(dimethylamino)-2-hydroxypropyl]oxy}-2-(methyloxy)phenyl]amino}-1H-pyrrolo[2,3-d]pyrimidin-4-yl)amino]-4-fluorobenzamide] | 9.00 to 9.60 | > 6.60 | < 6.30
4 | COc1ccc(NC(=O)CN(C)C)cc1Nc1nc(Nc2ccccc2C(N)=O)c2cc[nH]c2n1 [Example 15, 2-[(2-{[5-[(N,N-dimethylglycyl)amino]-2-(methyloxy)phenyl]amino}-1H-pyrrolo[2,3-d]pyrimidin-4-yl)amino]benzamide] | 9.00 to 9.60 | > 6.60 | 
5 | COc1ccc(OC[C@@H](O)CN2CCCC2)cc1Nc1nc(Nc2cc(F)c(F)cc2C(N)=O)c2cc[nH]c2n1 [Example 107, 4,5-difluoro-2-[(2-{[5-{[(2S)-2-hydroxy-3-(1-pyrrolidinyl)propyl]oxy}-2-(methyloxy)phenyl]amino}-1H-pyrrolo[2,3-d]pyrimidin-4-yl)amino]benzamide] | 8.40 to 8.90 | 6.00 to 6.60 | < 6.30
6 | COc1ccc(C(N)=O)c(Nc2nc(Nc3ccc(N4CCOC[C@@H]4C)cc3OC)nc3[nH]ccc23)c1 [Example 39, 2-[(2-{[4-[(3S)-3-methyl-4-morpholinyl]-2-(methyloxy)phenyl]amino}-1H-pyrrolo[2,3-d]pyrimidin-4-yl)amino]-4-(methyloxy)benzamide] | 8.40 to 8.90 | 6.00 to 6.60 | 
7 | CCCN1CCCC(c2ccc(Nc3nc(Nc4ccccc4C(N)=O)c4cc[nH]c4n3)c(OC)c2)C1 (stereo not drawn) [Example 3, 2-[(2-{[2-(methyloxy)-4-(1-propyl-3-piperidinyl)phenyl]amino}-1H-pyrrolo[2,3-d]pyrimidin-4-yl)amino]benzamide] | 9.00 to 9.60 | > 6.60 | > 7.00
8 | CN(C)CC(=O)Nc1ccc(F)c(Nc2nc(Nc3ccccc3C(N)=O)c3cc[nH]c3n2)c1 [Example 17, 2-{[2-({5-[(N,N-dimethylglycyl)amino]-2-fluorophenyl}amino)-1H-pyrrolo[2,3-d]pyrimidin-4-yl]amino}benzamide] | 9.00 to 9.60 | > 6.60 | 
9 | COc1cc(N2CCC(N3CCOCC3)CC2)ccc1Nc1nc(Nc2cc(F)ccc2C(N)=O)c2cc[nH]c2n1 [Example 78, 4-fluoro-2-{[2-({2-(methyloxy)-4-[4-(4-morpholinyl)-1-piperidinyl]phenyl}amino)-1H-pyrrolo[2,3-d]pyrimidin-4-yl]amino}benzamide] | 9.00 to 9.60 | 6.00 to 6.60 | 6.30 to 7.00
10 | CN(C)CC(=O)Nc1ccc(OC(F)(F)F)c(Nc2nc(Nc3ccccc3C(N)=O)c3cc[nH]c3n2)c1 [Example 16, 2-{[2-({5-[(N,N-dimethylglycyl)amino]-2-[(trifluoromethyl)oxy]phenyl}amino)-1H-pyrrolo[2,3-d]pyrimidin-4-yl]amino}benzamide] | 9.00 to 9.60 | 6.00 to 6.60 | 6.30 to 7.00
